According to patent US12377110B2, “Fospropofol methods and compositions” (Epalex Corporation, priority 2019, dated 2025):
Values joined by “and” are separate entries in the source; they are usually repeats but may differ in a detail not shown here. Equal values may be shown once. Where a name gives a salt, the structure may show the parent alone. Read-outs that look alike come from different tables or passages of the source.

What was measured:
[1] = type: physicochemical; details: for XRPD Analysis Post Dissolution: after IDR at pH 4.5; for Average pH: during IDR run, 36 ml water and 4 ml GI media; for Average pH / IDR Average / IDR Duplicate: pH set to 4.5, 37° C.; for IDR Average / IDR Duplicate: 3 mm disc, 100 rpm; for IDR Average: average of duplicate; for IDR Duplicate: individual duplicate values
Description: Intrinsic Dissolution Rate was measure in GI tract buff (pH—4.5 buffer): 2.99 g sodium acetate trihydrate was dissolved in 14.0 ml 2N acetic acid in a 1000 ml volumetric flask, and then made to volume with deionised water.
(§1) Data were collected on a Sirius inform instrument fitted with a dual UV DipProbe attachment and Ag/AgCI combination pH electrode. The electrode was calibrated using the four plus parameters derived from a blank titration. The base titrant was standardised by titration with TRIS. 0.5 M HCl and NaOHaqueous solutions were used as the acid and base titrants respectively for the testing. Stirring was facilitated by a dual overhead stirrer to allow thorough mixing within the vessel, and media was introduced via a capillary bundle attached to a dispensing bank comprised of six precision dispensing units. A Peltier heating jacket was used to maintain the temperature of the titration vessel. Discs were introduced to the vessel via the tablet picker housed in the probe arm, after the desired temperature of the media had been reached. Sirius inform Assay Design, Control and Refine software were used to design, run and refine data respectively.
(§2) One MEC data sets were then collected using five additions each of the water stock using 250, 500 and three times 750 μI aliquots, respectively. UV Spectra were then collected after each addition of the water stock to build a multi-point MEC calibration, using a 20 mm path length probe. The MEC data set was then imported into the dissolution data files in order to convert the UV absorbance measured to concentration. […] MEC data were collected at 37° C. to match the dissolution experiments.
(§3) Intrinsic Dissolution Rate (IDR): Approximately. 10-20 mg of the sample was compressed in a 3 mm disc recess, under 100 kg for 2 minutes, with greaseproof paper on the compression base, to form nondisintegrating discs. The discs were then plugged with a bung so that only one surface was exposed to the media during analysis and transferred to the Sirius inform dissolution apparatus. Analysis was performed at 37° C. in 36 ml water and 4 ml GI media with the pH set to 4.5, for 1 hour with UV spectra collected every 10 seconds. A stir speed of 100 rpm was used with a 20 mm path length probe. The IDR was calculated based on the surface area of the 3 mm disc recess used (7.07 mm2 surface area). XRPD analysis was performed on all samples, both after compression of the material into the disc recess, and post dissolution analysis to observe any change in form. All analysis was performed using XRPD 2.
(§4) X-Ray Powder Diffraction (XRPD2): XRPD diffractograms were collected on a Bruker AXS C2 GADDS diffractometer using Cu Ka radiation (40 kV, 40 mA), an automated XYZ stage, a laser video microscope for auto sample positioning and a Vantec-500 2-dimensional area detector. X-ray optics consists of a single Gobel multilayer mirror coupled with a pinhole collimator of 0.3 mm. The beam divergence, i.e. the effective size of the X-ray beam on the sample, was approximately 4 mm. […] The sample was exposed to the X-ray beam for 120 seconds under ambient conditions. The software used for data collection and analysis was GADDS for Win7/XP and Diffrac Plus EVA respectively.

[2] = type: physicochemical; details: for XRPD Analysis Post Dissolution: after IDR in faSSGf; for Average pH: during IDR run in 40 ml faSSGf media; for Average pH / IDR Average / IDR Duplicate: 37° C.; for IDR Average / IDR Duplicate: faSSGf media, 3 mm disc, 100 rpm; for IDR Average: average of duplicate; for IDR Duplicate: individual duplicate values
Description: Intrinsic Dissolution Rate was Determined in Simulated Intestinal Fluid at pH Base Buffer (FaSSGF):
Sodium chloride (2.0 g) and deionized water added to a 1000 ml volumetric flask, pH adjusted to 1.6 with concentrated hydrochloric […] acid, made up to volume with deionised water.
Phares SIF (simulated intestinal fluid) powder (0.06 g) was added to a 1 L volumetric flask and made to volume with base buffer.
as §1, with “Dip Probe” for “DipProbe”, “NaOH aqueous” for “NaOHaqueous”
as §2, with “were collected in the dissolution media {faSSGf) and at 37°” for “were collected at 37°”
as §3, with “10-20” for “Intrinsic Dissolution Rate (IDR): Approximately. 10-20”, “in 40” for “in 36”, “ml faSSGf” for “ml water and 4 ml GI”, “media” for “media with the pH set to 4.5,”, “every 30” for “every 10”
as §4

[3] = XRPD after 7 days storage at 40° C./75% RH; type: physicochemical
Description: XRPD was again taken after 7 days storage at 40° C./75% RH. Form II of the diethylamine salt and Form II of the ethanolamine salt were formed by conversion of Form I of the respective salts after 7 days storage at 40° C./75% RH.
Form II of the calcium salt was produced from Form I of the calcium salt after 7 days storage at 40° C./75% RH.

NCCN [Ethylene Diamine]
XRPD Analysis Post Dissolution [1]: Amorphous | Average pH [1]: 4.5 | IDR Average [1]: 0.77 mg/min/cm^2 | IDR Duplicate [1]: 0.76 mg/min/cm^2 and 0.78 mg/min/cm^2 | XRPD Analysis Post Dissolution [2]: Amorphous | Average pH [2]: 1.6 | IDR Average [2]: 1.2 mg/min/cm^2 | IDR Duplicate [2]: 1.16 mg/min/cm^2 and 1.29 mg/min/cm^2

Zinc
XRPD Analysis Post Dissolution [1]: Amorphous | Average pH [1]: 4.5 | IDR Average [1]: 0.18 mg/min/cm^2 | IDR Duplicate [1]: 0.19 mg/min/cm^2 and 0.18 mg/min/cm^2 | XRPD Analysis Post Dissolution [2]: Amorphous | Average pH [2]: 1.8 | IDR Average [2]: 1.3 mg/min/cm^2 | IDR Duplicate [2]: 1.22 mg/min/cm^2 and 1.31 mg/min/cm^2

[Ca] [Calcium]
XRPD Analysis Post Dissolution [1]: Amorphous | Average pH [1]: 4.5 | IDR Average [1]: 0.44 mg/min/cm^2 | IDR Duplicate [1]: 0.51 mg/min/cm^2 and 0.37 mg/min/cm^2 | XRPD Analysis Post Dissolution [2]: Amorphous | Average pH [2]: 1.8 | IDR Average [2]: 1.2 mg/min/cm^2 | IDR Duplicate [2]: 1.15 mg/min/cm^2 and 1.14 mg/min/cm^2

[Mg] [Magnesium]
XRPD Analysis Post Dissolution [1]: Amorphous | Average pH [1]: 4.5 | IDR Average [1]: 0.46 mg/min/cm^2 | IDR Duplicate [1]: 0.47 mg/min/cm^2 and 0.44 mg/min/cm^2 | XRPD Analysis Post Dissolution [2]: Amorphous | Average pH [2]: 1.8 | IDR Average [2]: 1.6 mg/min/cm^2 | IDR Duplicate [2]: 1.51 mg/min/cm^2 and 1.67 mg/min/cm^2

CC(C)c1cccc(C(C)C)c1OCOP(=O)(O)O [calcium salt of fospropofol (Form I)]
Solid form (XRPD) after storage, starting from Form I [3]: Form II

Sodium
Average pH [1]: 4.6 | IDR Average [1]: 37 mg/min/cm^2 | IDR Duplicate [1]: 38.04 mg/min/cm^2 and 35.67 mg/min/cm^2 | Average pH [2]: 1.8 | IDR Average [2]: 43 mg/min/cm^2 | IDR Duplicate [2]: 41.5 mg/min/cm^2 and 44.2 mg/min/cm^2
